In the Kinase Knowledgebase extract (Sharma et al. 2016):

biological target: PIK3CG (human) (UniProt P48736); assay: Inhibition of PIK3CG Kinase Activity
Sequence (P48736 whole entry, looked up): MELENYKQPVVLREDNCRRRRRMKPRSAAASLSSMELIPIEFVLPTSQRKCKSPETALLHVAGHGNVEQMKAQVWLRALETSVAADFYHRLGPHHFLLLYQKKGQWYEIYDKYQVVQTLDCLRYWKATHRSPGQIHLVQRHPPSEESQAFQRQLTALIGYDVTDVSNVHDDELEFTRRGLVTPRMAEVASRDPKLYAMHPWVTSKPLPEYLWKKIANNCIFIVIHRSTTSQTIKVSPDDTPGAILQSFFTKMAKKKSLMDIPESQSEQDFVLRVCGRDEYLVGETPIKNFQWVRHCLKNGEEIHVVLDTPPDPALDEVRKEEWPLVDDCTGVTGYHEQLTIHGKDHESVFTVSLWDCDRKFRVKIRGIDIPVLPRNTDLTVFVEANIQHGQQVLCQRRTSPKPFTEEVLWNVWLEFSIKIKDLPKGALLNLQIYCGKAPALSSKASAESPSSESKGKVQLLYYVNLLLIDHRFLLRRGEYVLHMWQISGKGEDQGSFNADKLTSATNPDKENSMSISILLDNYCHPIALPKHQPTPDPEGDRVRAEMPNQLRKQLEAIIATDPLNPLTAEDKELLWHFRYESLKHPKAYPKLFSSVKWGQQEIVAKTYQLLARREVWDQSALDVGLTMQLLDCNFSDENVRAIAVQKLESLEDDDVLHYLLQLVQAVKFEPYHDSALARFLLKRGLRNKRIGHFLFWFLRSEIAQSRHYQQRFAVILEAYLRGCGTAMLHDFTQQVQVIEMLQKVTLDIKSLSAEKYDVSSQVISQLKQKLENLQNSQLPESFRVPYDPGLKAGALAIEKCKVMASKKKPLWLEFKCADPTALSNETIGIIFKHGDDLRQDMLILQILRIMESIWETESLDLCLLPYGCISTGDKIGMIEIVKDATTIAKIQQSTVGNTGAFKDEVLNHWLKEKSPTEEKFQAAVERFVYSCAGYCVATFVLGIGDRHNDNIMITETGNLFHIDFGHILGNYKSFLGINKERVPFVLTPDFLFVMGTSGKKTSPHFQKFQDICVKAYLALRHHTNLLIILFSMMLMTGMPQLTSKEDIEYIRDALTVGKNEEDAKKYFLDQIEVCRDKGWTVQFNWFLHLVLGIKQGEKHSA

Structure (SMILES)	Ki
COc1cc(-c2ccc3c(c2)CN(c2cnn(CC4COc5ccccc5O4)c2)C3=O)cnc1OC (stereo unspecified)	100 to 490 nM
Cc1cc(-c2cncc(C(=O)NC3COC3)c2)nc2c1C(=O)N(c1cnn(CC(F)(F)F)c1)C2(C)C	< 100 nM
COc1cc(-c2cc(C)c3c(n2)CN(c2nccs2)C3=O)cnc1OC	< 100 nM
COc1cc(-c2cc(C)c3c(n2)CN(c2cc(C)[nH]n2)C3=O)cnc1OC	< 100 nM
COc1cc(-c2cc(C)c3c(n2)CN(c2ccc(C(F)(F)F)nc2)C3=O)cnc1OC	< 100 nM
COc1cc(-c2cc(C)c3c(n2)CN(c2ccn(CC(F)(F)F)n2)C3=O)cnc1OC	< 100 nM
COc1cncc(-c2cc(C)c3c(n2)C(C)N(c2ccn(CC(C)(C)F)n2)C3=O)c1 (stereo unspecified)	< 100 nM
Cc1cc(-c2cnc(N)c(OC(F)F)c2)nc2c1C(=O)N(c1cnn(CC(F)(F)F)c1)C2	< 100 nM
CCOc1cncc(-c2cc(C)c3c(n2)[C@@]2(CCOC2)N(c2cnn(CC(F)(F)F)c2)C3=O)c1	< 100 nM
COc1ncc(-c2cc(C)c3c(n2)CN(c2cn[nH]c2)C3=O)cc1OCC(F)F	< 100 nM
Cc1cc(-c2cncc(OC(F)F)c2)nc2c1C(=O)N(c1cnn(C[C@H](C)O)c1)[C@H]2C	< 100 nM
CCn1ccc(N2C(=O)c3c(C)cc(-c4cncc(OC)c4)nc3[C@H]2C)n1	< 100 nM
Cc1cc(-c2cncc(S(=O)(=O)N(C)C)c2)nc2c1C(=O)N(c1cnn(CC(F)(F)F)c1)C21CCOC1 (stereo unspecified)	< 100 nM
COc1cncc(-c2cc(C)c3c(n2)CN(c2ccn([C@H]4CCOC4)n2)C3=O)c1	< 100 nM
COc1cc(-c2cc(C)c3c(n2)CN(c2cncc(OCC(F)(F)F)c2)C3=O)cnc1OC	< 100 nM
COc1ncc(-c2cc(C)c3c(n2)C(C)(C)N(c2cnn(CC(F)(F)F)c2)C3=O)cc1C(=O)N[C@@H]1CCOC1	< 100 nM
COc1cc(-c2cc(C)c3c(n2)CN(c2ccc(OCCC(F)(F)F)nc2)C3=O)cnc1OC	< 100 nM
CCn1cc(N2Cc3nc(-c4cncc(OCC(F)(F)F)c4)cc(C)c3C2=O)cn1	< 100 nM
CCCOc1cc(-c2cc(C)c3c(n2)C(C)(C)N(c2cnn(CC#N)c2)C3=O)cnc1CC	< 100 nM
COc1ncc(-c2cc(C)c3c(n2)CN(c2cn[nH]c2)C3=O)cc1OCC(F)(F)F	< 100 nM

Structure (SMILES)	Ki
COc1cncc(-c2cc(C)c3c(n2)C2(COC2)N(c2cnn(CC(F)(F)F)c2)C3=O)c1	< 100 nM
CCn1ccc(N2C(=O)c3c(C)cc(-c4cncc(OC)c4)nc3C2(C)C)n1	100 to 490 nM
COc1cc(OC)c(-c2cc(C)c3c(c2)CN(c2cnn(CC(F)(F)F)c2)C3=O)cn1	< 100 nM
COc1cc(-c2ccc3c(c2)CN(c2ccn(C)n2)C3=O)cnc1OC	< 100 nM
CCOc1cncc(-c2cc(C)c3c(n2)[C@]2(CCOC2)N(c2cnn(CC(F)(F)F)c2)C3=O)c1	< 100 nM
CCn1ccc(N2Cc3nc(-c4cncc(OC(F)F)c4)cc(C)c3C2=O)n1	< 100 nM
COc1cncc(-c2cc(C)c3c(n2)CN(c2ccn(CC(C)(C)F)n2)C3=O)c1	< 100 nM
CCOc1cncc(-c2cc(C)c3c(n2)CN(c2cnn(CC(F)(F)F)c2)C3=O)c1	< 100 nM
COc1cc(-c2ccc3c(c2)CN(c2cccnc2)C3=O)cnc1OC	100 to 490 nM
COc1cncc(-c2cc(C)c3c(n2)[C@H](C)N(c2cn[nH]c2)C3=O)c1	< 100 nM
COc1cncc(-c2cc(C)c3c(n2)C(OCCO)N(c2cnn(CC(F)(F)F)c2)C3=O)c1 (stereo unspecified)	< 100 nM
Cc1cc(-c2cncc(OCC(F)F)c2)nc2c1C(=O)N(c1ccn([C@H]3CCOC3)n1)C2	< 100 nM
Cc1cc(-c2cncc(C(=O)NC3CCOC3)c2)nc2c1C(=O)N(c1cnn(CC(F)(F)F)c1)C2(C)C (stereo unspecified)	< 100 nM
COc1cc(-c2cc(C)c3c(n2)CN(c2cnc(OC)c(F)c2)C3=O)cnc1OC	< 100 nM
COc1cc(-c2cc(C)c3c(n2)CN(c2cnn(CC(F)(F)F)c2)C3=O)ccc1F	< 100 nM
Cc1cc(-c2cncc(OC(F)F)c2)nc2c1C(=O)N(c1cnn(C(C)(C)C#N)c1)C2C (stereo unspecified)	< 100 nM
Cc1cc(-c2cncc(OCC(F)(F)F)c2)cc2c1C(=O)N(c1cnn(CC(F)(F)F)c1)C2C (stereo unspecified)	< 100 nM
Cc1cc(-c2cncc(NS(=O)(=O)C(C)C)c2)nc2c1C(=O)N(c1cnn(CC(F)(F)F)c1)C2(C)C	< 100 nM
CCc1cc(N2Cc3nc(-c4cnc(OC)c(OC)c4)cc(C)c3C2=O)nn1C	< 100 nM
N#CCn1cc(N2Cc3cc(-c4cnc5ccccc5c4)ccc3C2=O)cn1	100 to 490 nM

Next, values leading:

Ki	Structure (SMILES)
< 100 nM	COc1cc(-c2ccc3c(n2)CN(c2ccc(C)s2)C3=O)cnc1OC
100 to 490 nM	COc1cc(-c2ccc3c(n2)C(N2CCOCC2)N(c2cnn(CC(F)(F)F)c2)C3=O)cnc1OC (stereo unspecified)
< 100 nM	CCOc1cc(-c2ccc3c(n2)CN(c2cnn(CC#N)c2)C3=O)cnc1OC
< 100 nM	CCOc1ncc(-c2cc(C)c3c(n2)C(C)(O)N(c2cnn(CC(F)(F)F)c2)C3=O)cc1OC (stereo unspecified)
< 100 nM	Cc1cc(-c2cncc(OCC(F)F)c2)nc2c1C(=O)N(c1cnn(CC(F)(F)F)c1)[C@@H]2C
< 100 nM	COc1cc(-c2ccc3c(n2)CN(c2cnn(C[C@H](O)CC#N)c2)C3=O)cnc1OC
< 100 nM	COCCn1cc(N2Cc3nc(-c4cnc(OC)c(OC)c4)ccc3C2=O)cn1
< 100 nM	COc1cc(-c2ccc3c(n2)CN(c2cnn(C(C)C#N)c2)C3=O)cnc1OC (stereo unspecified)
< 100 nM	COc1ncc(-c2cc(C)c3c(c2)C(C)N(c2cnn(CC(F)(F)F)c2)C3=O)cc1OC(F)F (stereo unspecified)
< 100 nM	COc1cc(-c2ccc3c(n2)CN(c2cncc(CC#N)c2)C3=O)cnc1OC
< 100 nM	COc1cc(-c2ccc3c(n2)C(C)N(c2ccn(CC(F)(F)F)n2)C3=O)cnc1OC (stereo unspecified)
100 to 490 nM	CCOc1cc(-c2ccc3c(c2)CN(c2cnn(CC)c2)C3=O)cnc1OC
< 100 nM	CCOc1cncc(-c2cc(C)c3c(n2)[C@@H](C)N(c2cnn(CC(F)(F)F)c2)C3=O)c1
< 100 nM	COc1cc(-c2ccc3c(n2)CN(c2cnn(Cc4cccnc4)c2)C3=O)cnc1OC
< 100 nM	COc1cc(-c2cc(C)c3c(n2)CN(c2cnn(C)c2)C3=O)cnc1OC
< 100 nM	COc1cc(-c2cc(C)c3c(n2)C(O)(C2CC2)N(c2cnn(CC(F)(F)F)c2)C3=O)cnc1OC (stereo unspecified)
< 100 nM	COc1cc(-c2ccc3c(n2)C(C)N(c2cnn(C(C)(C)C#N)c2)C3=O)cnc1OC (stereo unspecified)
< 100 nM	COc1cc(-c2ccc3c(n2)CN(c2cnn(CC(O)CF)c2)C3=O)cnc1OC (stereo unspecified)
< 100 nM	CCn1ccnc1Cn1cc(N2Cc3nc(-c4cnc(OC)c(OC)c4)ccc3C2=O)cn1

Ki	Structure (SMILES)
< 100 nM	COc1cc(-c2ccc3c(n2)CN(c2ccnc(C(C)(C)C#N)c2)C3=O)cnc1OC
100 to 490 nM	COc1cc(-c2ccc3c(n2)CN(c2ccc(=O)n(CC4OCCO4)c2)C3=O)cnc1OC
< 100 nM	CCOc1ncc(-c2cc(C)c3c(n2)CN(c2cnn(CC)c2)C3=O)cc1OC
< 100 nM	COc1cc(-c2cc(C)c3c(n2)C(C)(C)N(c2cnn(C[C@H](C)O)c2)C3=O)cnc1OC
< 100 nM	COc1cc(-c2ccc3c(n2)CN(c2cnn(CC(O)C(F)(F)F)c2)C3=O)cnc1OC (stereo unspecified)
< 100 nM	COc1cncc(-c2cc(C)c3c(n2)[C@H](C)N(c2cnn(CC(F)(F)F)c2)C3=O)c1
< 100 nM	COCn1cc(N2Cc3nc(-c4cnc(OC)c(OC)c4)ccc3C2=O)cn1
< 100 nM	COc1cc(-c2cc(C)c3c(n2)CN(c2cnn(CC(F)F)c2)C3=O)cnc1OC
100 to 490 nM	COc1cc(-c2ccc3c(c2)CN(c2cnn(CCCO)c2)C3=O)cnc1OC
< 100 nM	COc1cc(-c2cc(N(C)C)c3c(n2)CN(c2cnn(CC#N)c2)C3=O)cnc1OC
< 100 nM	COc1cc(-c2ccc3c(n2)C(C)N(c2ccn(C[C@@H](C)O)n2)C3=O)cnc1OC (stereo partly specified)
< 100 nM	COc1cc(-c2ccc3c(n2)[C@H](C)N(c2cnn(CC(C)(C)O)c2)C3=O)cnc1OC
< 100 nM	COc1cc(-c2ccc3c(n2)C(C)N(c2ccn(CC(C)(C)O)n2)C3=O)cnc1OC (stereo unspecified)
< 100 nM	CCn1cc(N2Cc3nc(-c4ccc(OC)c(OC)c4)cc(C)c3C2=O)cn1
< 100 nM	COc1ncc(-c2cc(C)c3c(n2)C(C)N(c2cnn(CC(F)F)c2)C3=O)cc1C(=O)O (stereo unspecified)
< 100 nM	COc1cc(-c2cc(C)c3c(n2)C(C(C)C)N(c2cnn(CC(F)(F)F)c2)C3=O)cnc1OC (stereo unspecified)
< 100 nM	COCCOc1ncc(-c2cc(C)c3c(n2)[C@H](C)N(c2ccn(C)n2)C3=O)cc1OC
< 100 nM	COc1ccc(-c2cc(C)c3c(c2)CN(c2cnn(CC(F)(F)F)c2)C3=O)nc1OC
< 100 nM	Cc1cc(-c2cncc(OC(F)F)c2)nc2c1C(=O)N(c1cnn(CC(F)(F)F)c1)C2C (stereo unspecified)

Ki	Structure (SMILES)
< 100 nM	COc1cc(OC)c(-c2cc(C)c3c(n2)C(C)N(c2cnn(CC(F)(F)F)c2)C3=O)cn1 (stereo unspecified)
< 100 nM	CCn1ccc(N2Cc3nc(-c4cnc(OC)c(OC)c4)ccc3C2=O)n1
< 100 nM	CCn1nc(N2Cc3nc(-c4cnc(OC)c(OC)c4)ccc3C2=O)cc1COC
< 100 nM	CCOc1cc(-c2cc(C)c3c(n2)CN(c2cnn(CC#N)c2)C3=O)cnc1OC
< 100 nM	CC[C@]1(OC)c2nc(-c3cnc(OC)c(OC)c3)cc(C)c2C(=O)N1c1cnn(CC(F)(F)F)c1
< 100 nM	COCCOC1c2nc(-c3cnc(OC)c(OC)c3)ccc2C(=O)N1c1cnn(CC(F)(F)F)c1 (stereo unspecified)
< 100 nM	COc1cc(-c2ccc3c(n2)CN(c2nccs2)C3=O)cnc1OC
< 100 nM	COCc1cc(N2Cc3nc(-c4cnc(OC)c(OC)c4)ccc3C2=O)nn1C[C@H](C)O
< 100 nM	CCc1cc(N2Cc3nc(-c4cnc(OC)c(OC)c4)ccc3C2=O)nn1CC
< 100 nM	CCOc1cc(-c2cc(C)c3c(n2)C(OCCOC)N(c2cnn(CC(F)(F)F)c2)C3=O)cnc1OC (stereo unspecified)
< 100 nM	COCCO[C@@H]1c2nc(-c3cnc(OC)c(OC)c3)ccc2C(=O)N1c1cnn(CC(F)(F)F)c1
100 to 490 nM	COc1cc(-c2ccc3c(n2)CN(c2ccnc(OCC(F)F)c2)C3=O)cnc1OC
< 100 nM	COc1cncc(-c2cc(C)c3c(n2)[C@@H](C)N(c2ccn(CC(C)(C)O)n2)C3=O)c1
< 100 nM	CCOc1ncc(-c2cc(C)c3c(n2)C(O)N(c2cnn(CC(F)(F)F)c2)C3=O)cc1OC (stereo unspecified)
< 100 nM	COc1cc(-c2cc(C)c3c(n2)C(C)N(c2cnn(CC(F)(F)F)c2)C3=O)cnc1C (stereo unspecified)
< 100 nM	COc1cc(-c2cc3c(c(C)n2)C(=O)N(c2cnn(CC(F)(F)F)c2)C3)cnc1OC
< 100 nM	Cc1cc(-c2cncc(OCC(F)F)c2)nc2c1C(=O)N(c1cnn(CC(F)(F)F)c1)[C@H]2C
< 100 nM	CCOC1c2nc(-c3cnc(OC)c(OC)c3)ccc2C(=O)N1c1cnn(CC(F)(F)F)c1 (stereo unspecified)
